Assay results taken from ChEMBL document CHEMBL1201862, “PubChem BioAssay data set” (2004).
The source made the active and inactive calls.

What was measured:
[1] = HEK-293T viability loss after treatment – luminescence, T-cell screen hits, cytotoxicity control for TCR NF-kB inhibitor project, dose response (AID 489026); type: functional, cell-based;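 also: cells exposed to compound about 14 hours before the viability readout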
BJ [2] = assay: BJ-TERT fibroblast viability loss – cell-based, RAS-independent, luminescence, dose response (AID 1933); type: functional; details: Homo sapiens
[3] = luciferase reporter signal suppression in cells – H4 neuroglioma cells, luminescence, dose response (AID 1990); type: functional, cell-based
[4] = DRD fibroblast viability loss – cell-based, non-viral oncogenic, luminescence, dose response (AID 1934); type: functional; details: Homo sapiens
BJ [5] = assay: cells; type: functional, cell-based; details: Homo sapiens
[6] = alpha-synuclein stem-loop luciferase translation blockers – H4 neuroglioma cells, luminescence, confirmation (AID 1988); type: functional, cell-based
[7] = Luminescence Cell-Based Dose Response HTS to Identify Inhibitors of 5'UTR Stem-Loop Driven Prion Protein mRNA Translation in H4 Neuroglioblastoma Cells. [Related pubchem assays: 1827 (Project Summary), 1813 (Primary HTS)]; type: functional
BJ [8] = assay: BJ-TERT-LT-ST fibroblast viability loss – cell-based, RAS-independent, luminescence, dose response (AID 1935); type: functional; details: Homo sapiens;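 also: BJ fibroblasts immortalized with TERT plus LT and ST oncogenes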
[9] = target: Glucose-6-phosphate 1-dehydrogenase (Homo sapiens, UniProt P11413); assay: inhibition of Homo sapiens G6PD, dose series – biochemical, fluorescence, selectivity assay for P. falciparum G6PD inhibitor project, dose response (AID 504792); type: functional
Sequence of Glucose-6-phosphate 1-dehydrogenase (P11413 whole entry): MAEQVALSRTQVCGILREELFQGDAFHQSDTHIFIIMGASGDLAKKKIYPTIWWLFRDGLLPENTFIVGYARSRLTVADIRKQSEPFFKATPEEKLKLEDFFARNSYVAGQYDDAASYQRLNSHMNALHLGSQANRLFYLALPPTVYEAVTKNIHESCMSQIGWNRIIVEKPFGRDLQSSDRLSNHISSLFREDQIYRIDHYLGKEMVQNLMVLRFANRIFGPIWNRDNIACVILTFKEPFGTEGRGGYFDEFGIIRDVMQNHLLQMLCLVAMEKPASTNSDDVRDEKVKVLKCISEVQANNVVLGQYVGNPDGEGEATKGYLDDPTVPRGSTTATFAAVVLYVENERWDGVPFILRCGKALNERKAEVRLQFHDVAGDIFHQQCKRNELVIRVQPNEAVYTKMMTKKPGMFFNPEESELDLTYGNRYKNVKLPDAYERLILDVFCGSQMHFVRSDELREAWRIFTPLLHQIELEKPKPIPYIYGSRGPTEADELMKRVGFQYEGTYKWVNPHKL

[10] = Vero E6 cell cytotoxicity, dose response, cytotoxicity control for non-replicating M. tuberculosis project, secondary assay (AID 492998); type: functional, VeroE6; details: Vero C1008
[11] = THP-1 cell cytotoxicity, dose response, cytotoxicity control for non-replicating M. tuberculosis project (AID 489025); type: functional
cells = type: functional
Large T antigen = Large T antigen (Simian virus 40, UniProt P03070); type: functional, Betapolyomavirus macacae;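 also: Confirmatory-stage PubChem screen for compounds that inhibit SV40 T antigen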
Sequence of Large T antigen (P03070 whole entry): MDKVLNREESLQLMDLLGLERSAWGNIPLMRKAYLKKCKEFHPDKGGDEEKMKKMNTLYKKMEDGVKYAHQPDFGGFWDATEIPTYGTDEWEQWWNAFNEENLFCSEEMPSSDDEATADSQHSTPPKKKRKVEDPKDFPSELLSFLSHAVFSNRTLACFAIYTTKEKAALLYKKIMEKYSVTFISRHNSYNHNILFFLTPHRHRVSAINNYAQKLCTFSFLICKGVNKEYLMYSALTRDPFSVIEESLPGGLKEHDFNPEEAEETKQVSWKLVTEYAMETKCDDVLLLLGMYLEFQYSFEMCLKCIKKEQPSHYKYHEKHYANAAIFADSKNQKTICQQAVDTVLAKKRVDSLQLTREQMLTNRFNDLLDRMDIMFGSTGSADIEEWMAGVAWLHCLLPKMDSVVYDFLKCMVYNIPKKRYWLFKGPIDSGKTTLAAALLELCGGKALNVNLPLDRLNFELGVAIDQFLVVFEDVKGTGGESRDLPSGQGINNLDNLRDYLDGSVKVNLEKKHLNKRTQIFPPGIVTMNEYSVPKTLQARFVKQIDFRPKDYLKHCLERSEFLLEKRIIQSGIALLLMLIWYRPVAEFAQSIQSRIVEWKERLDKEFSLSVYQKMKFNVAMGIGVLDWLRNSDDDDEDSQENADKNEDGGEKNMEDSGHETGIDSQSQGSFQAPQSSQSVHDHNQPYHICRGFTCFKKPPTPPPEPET

[12] = target: T1, Heat shock factor protein 1 (Mus musculus, UniProt P38532); assay: decrease of HSF1-responsive luciferase luminescence – cell-based, NIH3T3, dose retest, confirmation (AID 2382); type: functional;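 also: NIH3T3 fibroblasts with HSF1-driven luciferase reporter stressed by proteasome inhibitor MG132; luminescence from HSF1-driven luciferase expression after 8 hours of MG132 stress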
T1 sequence (P38532 whole entry): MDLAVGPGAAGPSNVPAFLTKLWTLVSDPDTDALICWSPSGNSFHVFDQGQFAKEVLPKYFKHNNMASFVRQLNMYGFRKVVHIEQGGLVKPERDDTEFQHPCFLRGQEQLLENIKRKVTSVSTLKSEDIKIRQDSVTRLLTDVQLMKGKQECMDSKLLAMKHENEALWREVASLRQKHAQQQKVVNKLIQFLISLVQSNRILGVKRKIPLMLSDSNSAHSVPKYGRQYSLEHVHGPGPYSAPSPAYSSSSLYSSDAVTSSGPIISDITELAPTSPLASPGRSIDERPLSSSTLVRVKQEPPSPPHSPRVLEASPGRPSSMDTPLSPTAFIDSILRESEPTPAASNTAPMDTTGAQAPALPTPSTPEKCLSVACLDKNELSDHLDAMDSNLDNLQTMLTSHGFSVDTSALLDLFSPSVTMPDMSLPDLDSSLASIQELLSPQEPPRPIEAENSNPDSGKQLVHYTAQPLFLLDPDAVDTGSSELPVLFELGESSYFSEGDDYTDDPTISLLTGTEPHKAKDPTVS

[13] = target: T2, Short transient receptor potential channel 4 (Mus musculus, UniProt Q9QUQ5); assay: block of DAMGO-driven TRPC4 calcium entry – cell-based, HEK293 TRPC4/mu-opioid, Fluo-4 calcium, dose response (AID 434942); type: functional;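 also: potency of inhibitors blocking the TRPC4 calcium response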
T2 sequence (Q9QUQ5 whole entry): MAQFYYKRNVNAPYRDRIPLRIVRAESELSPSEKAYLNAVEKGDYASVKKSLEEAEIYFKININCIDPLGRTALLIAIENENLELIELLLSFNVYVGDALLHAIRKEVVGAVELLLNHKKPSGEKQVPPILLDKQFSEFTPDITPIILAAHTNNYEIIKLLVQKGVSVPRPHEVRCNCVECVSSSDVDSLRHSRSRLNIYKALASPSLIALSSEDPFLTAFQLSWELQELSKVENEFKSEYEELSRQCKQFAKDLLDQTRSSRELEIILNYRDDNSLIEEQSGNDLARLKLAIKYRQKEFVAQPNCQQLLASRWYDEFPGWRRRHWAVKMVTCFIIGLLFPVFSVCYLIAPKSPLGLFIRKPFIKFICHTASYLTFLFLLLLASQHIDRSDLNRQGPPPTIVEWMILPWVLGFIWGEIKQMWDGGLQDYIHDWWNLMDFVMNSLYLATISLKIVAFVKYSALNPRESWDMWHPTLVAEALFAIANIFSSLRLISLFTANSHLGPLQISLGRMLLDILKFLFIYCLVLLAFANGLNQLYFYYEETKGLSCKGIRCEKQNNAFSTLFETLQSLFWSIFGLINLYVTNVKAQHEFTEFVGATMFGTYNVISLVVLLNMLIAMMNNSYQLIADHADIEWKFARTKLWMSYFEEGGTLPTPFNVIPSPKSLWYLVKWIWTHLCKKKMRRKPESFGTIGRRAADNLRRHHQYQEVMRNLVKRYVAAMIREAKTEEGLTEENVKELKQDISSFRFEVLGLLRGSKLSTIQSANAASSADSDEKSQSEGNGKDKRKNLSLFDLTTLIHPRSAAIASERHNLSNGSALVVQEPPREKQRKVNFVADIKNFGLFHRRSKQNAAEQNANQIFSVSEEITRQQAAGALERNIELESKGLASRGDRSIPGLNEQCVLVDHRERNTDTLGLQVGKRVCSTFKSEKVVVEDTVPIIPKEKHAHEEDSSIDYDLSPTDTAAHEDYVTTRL

[14] = target: 5-hydroxytryptamine receptor 5A (Homo sapiens, UniProt P47898); assay: Counterscreen for agonists of OPRM1-OPRD1 heterodimerization: luminescence-based cell-based high throughput dose response assay to identify agonists of 5-hydroxytryptamine (serotonin) 5A receptor (HTR5A). [Related pubchem assays (depositor defined):AID504326, AID504355, AID504692, AID504904, AID504905]; type: functional
Sequence of 5-hydroxytryptamine receptor 5A (P47898 whole entry): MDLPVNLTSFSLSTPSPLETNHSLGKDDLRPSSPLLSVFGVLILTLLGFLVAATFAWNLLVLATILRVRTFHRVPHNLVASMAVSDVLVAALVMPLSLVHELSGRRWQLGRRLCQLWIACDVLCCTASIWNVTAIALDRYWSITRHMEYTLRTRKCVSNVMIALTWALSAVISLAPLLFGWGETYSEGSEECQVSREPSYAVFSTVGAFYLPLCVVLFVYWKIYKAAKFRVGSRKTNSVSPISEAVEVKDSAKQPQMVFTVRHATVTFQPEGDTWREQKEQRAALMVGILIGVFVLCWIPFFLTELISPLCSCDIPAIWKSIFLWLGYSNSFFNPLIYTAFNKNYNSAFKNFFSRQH

Mu-type opioid receptor = Mu-type opioid receptor (Homo sapiens, UniProt P35372); assay: (§1) Counterscreen for agonists of heterodimerization of the mu 1 (OPRM1) and delta 1 (OPRD1) opioid receptors: Luminescence-based cell-based high throughput dose response assay to identify agonists of OPRM1 homodimerization.; type: functional
Sequence of Mu-type opioid receptor (P35372 whole entry): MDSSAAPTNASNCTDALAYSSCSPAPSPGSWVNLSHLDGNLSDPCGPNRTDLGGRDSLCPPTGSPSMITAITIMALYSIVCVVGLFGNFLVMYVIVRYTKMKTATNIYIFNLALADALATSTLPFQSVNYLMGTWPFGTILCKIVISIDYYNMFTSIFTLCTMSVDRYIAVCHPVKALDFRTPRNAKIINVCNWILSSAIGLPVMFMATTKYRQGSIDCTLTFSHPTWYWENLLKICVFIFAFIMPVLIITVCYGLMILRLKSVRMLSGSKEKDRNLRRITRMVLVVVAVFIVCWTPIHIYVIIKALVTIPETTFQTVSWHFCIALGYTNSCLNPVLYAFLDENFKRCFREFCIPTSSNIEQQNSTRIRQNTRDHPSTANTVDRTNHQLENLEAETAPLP

[15] = target: Delta-type opioid receptor (Homo sapiens, UniProt P41143); assay: as §1, with “of OPRD1” for “of OPRM1”, “homodimerization. [Related pubchem assays (depositor defined):AID504326, AID504355, AID504692, AID504904, AID504905]” for “homodimerization.”; type: functional
Sequence of Delta-type opioid receptor (P41143 whole entry): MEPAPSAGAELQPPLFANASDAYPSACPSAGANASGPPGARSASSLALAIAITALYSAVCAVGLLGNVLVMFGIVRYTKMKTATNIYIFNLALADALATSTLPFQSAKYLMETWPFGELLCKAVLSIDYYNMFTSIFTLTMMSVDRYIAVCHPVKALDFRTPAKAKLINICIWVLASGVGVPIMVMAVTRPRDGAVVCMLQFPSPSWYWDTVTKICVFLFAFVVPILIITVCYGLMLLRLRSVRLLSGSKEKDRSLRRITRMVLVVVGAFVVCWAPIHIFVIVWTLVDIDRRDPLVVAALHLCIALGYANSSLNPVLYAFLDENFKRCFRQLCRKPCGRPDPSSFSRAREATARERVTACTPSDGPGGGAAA

[16] = target: T2, Short transient receptor potential channel 4; assay: calcium entry via TRPC4 opening agents – cell-based, HEK293 TRPC4/mu-opioid, Fluo-4 calcium, dose response (AID 434937); type: functional
[17] = Luminescence Cell-Based Dose Retest to Confirm Inhibitors of Cancer Stem Cells. [Related pubchem assays (depositor defined):AID2717, AID2721]; type: functional; details: Homo sapiens
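For AC50 in this document: cells exposed to compound for roughly 70 hours or longer before luminescence read.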

## O=C(c1cc(-c2ccncc2)nc2c(Cl)cccc12)N1CCN(c2ccccc2F)CC1
[1]
  IC50: > 80 µM (inactive)
BJ [2]
  EC50: 8.6 µM (inconclusive)
[3]
  EC50: 7.93 µM (inconclusive)
[4]
  EC50: 12.8 µM (inconclusive)
BJ [5]
  EC50: 18.9 µM (active)
[6]
  EC50: 3.67 µM (active)
[7]
  EC50: > 120 µM (not active)
BJ [8]
  EC50: 4.08 µM (active)

## O=C(Nc1nnc(S(=O)(=O)N2CCOCC2)s1)c1ccc(F)cc1
[9]
  IC50: > 80 µM (inactive)

## FC(F)(F)c1nnc2ccc(Cl)nn12
[10]
  CC50: > 20 µM (active)
[11]
  CC50: 8.62 µM (active)
cells
  IC50: 1.82 µM (active)

## O=C1COc2ccc(N3C(=O)C=CC3=O)cc2N1
Large T antigen
  IC50: > 100 µM (active)
[12]
  EC50: 9.09 µM (active)
[13]
  EC50: 6.68 µM (active)

## Cc1nc([N+](=O)[O-])c(Br)n1Cc1ccccc1
[10]
  CC50: > 20 µM (active)
[11]
  CC50: 30.1 µM (active)
cells
  IC50: 9.77 µM (active)

## CN(C)CCCN(C(=O)c1ccc(S(=O)(=O)N2CCc3ccccc3C2)cc1)c1nc2c(F)cc(F)cc2s1
[14]
  EC50: > 92.5 µM (inactive)
Mu-type opioid receptor
  EC50: 5.1 µM (active)
[15]
  EC50: > 92.5 µM (inactive)
[16]
  EC50: 1.19 µM (active)

## COc1ccc(N=C2C(=S)N(c3ccc(OC)cc3)C(=NS(=O)(=O)c3ccccc3)N2c2ccccc2)cc1
[9]
  IC50: > 80 µM (inactive)

## CCOC(=O)C1(CC2CC2)CCN(Cc2cnc(-c3ccccc3C)nc2)CC1
[14]
  EC50: > 92.5 µM (inactive)
Mu-type opioid receptor
  EC50: > 92.5 µM (inactive)
[15]
  EC50: > 92.5 µM (inactive)
[16]
  EC50: 5.31 µM (active)

## CCc1cccc(C)c1N=C(S)NCC(c1cccnc1)N(C)C (stereo not drawn)
[14]
  EC50: > 92.5 µM (inactive)
Mu-type opioid receptor
  EC50: > 92.5 µM (inactive)
[15]
  EC50: 79.4 µM (inactive)
[16]
  EC50: 0.0467 µM (active)

## CC(C)(C)c1ccc(O)c(O)c1
[9]
  IC50: > 80 µM (inactive)
[17]
  AC50: 4.47 µM (active)
